Laboratory results as given in the supplement of paper PMC10307832.

Tests used:
Assay in all cases: relative viability (nuclei count vs DMSO), 5 days (fraction); higher = more cells survive
LU99A = tested on: LU99A
Outline: (§1)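 Lung cancer cell lines were pin-tool dosed in 1536-well plates on the day after seeding, with either a lone drug or a fixed anchor-drug dose plus five library-drug doses (not always all listed) in √10 steps. Nuclei were counted on 4× images after 5 days. Relative viability is the ratio of treated-well to vehicle-well nuclei counts, with each value a median of duplicate plates.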

ChaGo-K-1 = tested on: ChaGo-K-1
Outline: as §1

NCI-H661 = tested on: NCI-H661
Outline: as §1

NCI-H1944 = tested on: NCI-H1944
Outline: as §1

SK-MES-1 = tested on: SK-MES-1
Outline: as §1

NCI-H358 = tested on: NCI-H358
Outline: as §1

NCI-H322M = tested on: NCI-H322M
Outline: as §1

HCC-15 = tested on: HCC-15
Outline: as §1

LXF-289 = tested on: LXF-289
Outline: as §1

BEN = tested on: BEN
Outline: as §1

NCI-H2087 = tested on: NCI-H2087
Outline: as §1

NCI-H838 = tested on: NCI-H838
Outline: as §1

Clc1ccc(Nc2nnc(Cc3ccncc3)c3ccccc23)cc1 [Vatalanib] + N=C(N)NC(=N)NCCc1ccccc1 [Phenformin] (partner 250 µM)
relative viability (LU99A; first compound 0.04 µM): 0.839
relative viability (LU99A; first compound 0.1265 µM): 0.764
relative viability (LU99A; first compound 0.4 µM): 1.04
relative viability (LU99A; first compound 1.265 µM): 0.705
relative viability (LU99A; first compound 4 µM): 0.813
relative viability (ChaGo-K-1; first compound 0.04 µM): 0.453
relative viability (ChaGo-K-1; first compound 0.1265 µM): 0.407
relative viability (ChaGo-K-1; first compound 0.4 µM): 0.522
relative viability (ChaGo-K-1; first compound 1.265 µM): 0.432
relative viability (ChaGo-K-1; first compound 4 µM): 0.431
relative viability (NCI-H661; first compound 0.04 µM): 0.32
relative viability (NCI-H661; first compound 0.1265 µM): 0.248
relative viability (NCI-H661; first compound 0.4 µM): 0.304
relative viability (NCI-H661; first compound 1.265 µM): 0.267
relative viability (NCI-H661; first compound 4 µM): 0.286
relative viability (NCI-H1944; first compound 0.04 µM): 0.221
relative viability (NCI-H1944; first compound 0.1265 µM): 0.198
relative viability (NCI-H1944; first compound 0.4 µM): 0.212
relative viability (NCI-H1944; first compound 1.265 µM): 0.188
relative viability (NCI-H1944; first compound 4 µM): 0.19
relative viability (SK-MES-1; first compound 0.04 µM): 0.659
relative viability (SK-MES-1; first compound 0.1265 µM): 0.638
relative viability (SK-MES-1; first compound 0.4 µM): 0.753
relative viability (SK-MES-1; first compound 1.265 µM): 0.572
relative viability (SK-MES-1; first compound 4 µM): 0.537
relative viability (NCI-H358; first compound 0.04 µM): 0.32
relative viability (NCI-H358; first compound 0.1265 µM): 0.304
relative viability (NCI-H358; first compound 0.4 µM): 0.381
relative viability (NCI-H358; first compound 1.265 µM): 0.367
relative viability (NCI-H358; first compound 4 µM): 0.326
relative viability (NCI-H322M; first compound 0.04 µM): 0.755
relative viability (NCI-H322M; first compound 0.1265 µM): 0.789
relative viability (NCI-H322M; first compound 0.4 µM): 0.826
relative viability (NCI-H322M; first compound 1.265 µM): 0.685
relative viability (NCI-H322M; first compound 4 µM): 0.759
relative viability (HCC-15; first compound 0.04 µM): 0.487
relative viability (HCC-15; first compound 0.1265 µM): 0.46
relative viability (HCC-15; first compound 0.4 µM): 0.441
relative viability (HCC-15; first compound 1.265 µM): 0.443
relative viability (HCC-15; first compound 4 µM): 0.457
relative viability (LXF-289; first compound 0.04 µM): 0.505
relative viability (LXF-289; first compound 0.1265 µM): 0.465
relative viability (LXF-289; first compound 0.4 µM): 0.558
relative viability (LXF-289; first compound 1.265 µM): 0.53
relative viability (LXF-289; first compound 4 µM): 0.539
relative viability (BEN; first compound 0.04 µM): 0.29
relative viability (BEN; first compound 0.1265 µM): 0.233
relative viability (BEN; first compound 0.4 µM): 0.274
relative viability (BEN; first compound 1.265 µM): 0.231
relative viability (BEN; first compound 4 µM): 0.306
relative viability (NCI-H2087; first compound 0.04 µM): 0.484
relative viability (NCI-H2087; first compound 0.1265 µM): 0.404
relative viability (NCI-H2087; first compound 0.4 µM): 0.428
relative viability (NCI-H2087; first compound 1.265 µM): 0.461
relative viability (NCI-H2087; first compound 4 µM): 0.541
relative viability (NCI-H838; first compound 0.04 µM): 0.607
relative viability (NCI-H838; first compound 0.1265 µM): 0.476
relative viability (NCI-H838; first compound 0.4 µM): 0.69
relative viability (NCI-H838; first compound 1.265 µM): 0.563
